Laboratory results taken from US10426773B2, “Systems pharmacology for treating ocular disorders” (Case Western Reserve Univeristy, priority 2011, dated 2019).
“Also recorded” adds a separate entry of the source. Where two headings read alike, the source gives them in different places.

Assays:
[1] = test system: ROS generation in photoreceptors of Abca4−/−Rdh8−/− mice; experiment: In vivo detection of ROS (DHE probe) in retinas of light-exposed Abca4−/−Rdh8−/− mice; parameters: species or system mouse; conditions: for ROS production in the ONL / photoreceptors (DHE signal): Example 1, pretreatment before light 10,000 lux 30 min, retinas 3 h after illumination; for ROS generation in photoreceptors (DHE signal): Example 3, DOX 10 mg/kg, GUB 2.0 mg/kg, SQ 0.5 mg/kg ip 30 min prior to light
Procedure: The ROS probe, DHE, at a dose of 20 mg/kg body weight was administered to Abca4^−/−Rdh8^−/− mice via intraperitoneal injection 30 min prior to light exposure. Eye cups obtained after removing the cornea, lens and vitreous body from enucleated eye globes 3 h post light illumination were fixed in 4% paraformaldehyde. Cryosections were prepared from fixed eye cups and cut at 12 am thickness for microscopic assessment of ROS signal fluorescence in the retina.
The ROS probe, DHE, at a dose of 20 mg/kg body weight in 25 μl of DMSO, was administered to Abca4^−/−Rdh8^−/− mice via intraperitoneal injection 1 h prior to light exposure. Eye cups obtained after removing the cornea, lens, and vitreous body from enucleated eye globes 3 h post light illumination were fixed in 4% paraformaldehyde. Cryosections were prepared from fixed eye cups and cut at 12-am thickness for microscopic assessment of ROS fluorescence in the retina with ImageJ software (National Institutes of Health).

[2] = test system: Abca4−/−Rdh8−/− mice; conditions: mouse, in vivo
[3] = test system: Abca4−/−Rdh8−/− mice; experiment: Bright light-induced retinal degeneration in Abca4−/−Rdh8−/− mice, retinal histology and immunohistochemistry; format: in vivo, mouse; conditions: pretreatment before light 10,000 lux 30 min; 7-10 days after light exposure
Procedure: Retinal histology and immunohistochemistry (IHC) was performed as previously described. Briefly, eye cups free of cornea, lens and vitreous body were fixed in 2% glutaraldehyde/4% paraformaldehyde and processed for Epon embedding. Sections 1 am thick were cut and stained with toluidine blue for histological examination under a light microscope. IHC analysis was performed on 12 am thick cryosections prepared from 4% paraformaldehyde-fixed eye cups. Collected cryosections were subjected to examination for rhodopsin, PNA and DAPI expression.
Retinal immunohistochemistry (IHC) was carried out as previously described. Briefly, eyes were enucleated and eye cups were made to eliminate cornea, lens and vitreous body and fixed in 4% paraformaldehyde and processed for cryosectioning. 12 am thick cryosections were collected cryosections and subjected to examination for rhodopsin, peanut agglutinin lectin (PNA) and DAPI expression.
Retinal immunohistochemistry (IHC) was performed as previously described. Briefly, eyes were enucleated and, after removal of the cornea, lens and vitreous body, eye cups were fixed in 4% paraformaldehyde and processed for cryosectioning. Twelve μm thick cryosections were cut, collected and examined for rhodopsin expression, peanut agglutinin lectin (PNA) for cone sheath and nuclear DAPI staining. […]

[4] = test system: ARPE19 cells
[5] = test system: ARPE19 cells; experiment: In vitro detection and quantification of intracellular ROS in ARPE19 cells (DCF-DA / DHE probes); format: cell-based, human; conditions: for intracellular ROS production: retinoid applied to cultured ARPE19 cells, ROS probe DCF-DA or DHE
Procedure: ARPE19 cells were cultured in Dulbecco's Modified Eagle's Medium (DMEM) (low glucose) supplemented with 10% fetal bovine serum. The ROS probes, 2′,7′-dichlorofluorescein diacetate (DCF-DA, Sigma, St. Louis, Mo.) or dihydroethidium (DHE, Invitrogen Corporation, Carlsbad, Calif.) were added after indicated pretreatments and incubated at 37° C. for 10-min before thorough washing in PBS and the ROS signals were subsequently observed at the same exposure setting under an inverted fluorescence microscope (Leica DMI 6000 B). Fluorescence quantification was performed with Metamorph imaging software (Molecular Devices, Downington, Pa.). Thresholds corresponding to fluorescent signals were set from the images and average fluorescence intensities were recorded for statistical analysis.

[6] = test system: Abca4−/−Rdh8−/− mice; experiment: Bright light-induced retinal degeneration in Abca4−/−Rdh8−/− mice, ERG retinal function; conditions: pretreatment before light 10,000 lux 30 min, ERG 7 days to 2 weeks after
[7] = test system: Abca4−/−Rdh8−/− mice; experiment: Bright light-induced retinal degeneration in Abca4−/−Rdh8−/− mice, OCT imaging of retinal structure; format: in vivo, mouse; conditions: for retinal / photoreceptor morphology by OCT imaging: pretreatment before light 10,000 lux 30 min, OCT 7 days after light exposure
[8] = Quantification of selected drugs in mouse serum and eye by LC-MS; format: in vivo, C57BL/6J WT mice; conditions: for Eye ± SD / concentration at 30 min: 30 min after a single ip dose: DOX 10, GUB 2, SQ 0.5 mg per kilogram; for Eye ± SD: mice perfused with PBS; for concentration at 30 min: C57BL/6J, mouse, serum, intraperitoneal, read-out: Serum ± SD; for amount in eye compared with level in 0.1 mL of serum: eye volume taken as about 0.1 mL
Procedure: C57BL/6J WT mice at 6 weeks of age (Jackson Laboratory) were treated with DOX, GUB, or SQ at a single dose of 10, 2, and 0.5 mg per kilogram, respectively. The compound was dissolved in 50% DMSO in PBS (137 mM NaCl, 2.7 mM KCl, 0.67 mM […]). Next, to precipitate excess proteins, 0.3 ml of methanol was added to both the eye homogenate and 0.1 ml of serum. Samples were vortexed for 30 s followed by centrifugation for 15 min at 16,000 g. Clear supernatants were collected and used directly for LC-MS analysis. 2HPO4/KH2PO4, pH 7.4) and administrated by intraperitoneal injection. Thirty minutes later the mice were anesthetized. Blood samples were collected using the technique of cardiac puncture and subsequently centrifuged (5 min, 16,000 g) to collect serum. Prior to harvesting eyes, mice were intracardially perfused with PBS to minimalize blood contamination. Eye balls were immediately homogenized in 0.1 ml of PBS. The homogenate and serum samples were spiked with 100 pmols of internal standard (IS) (parazosin—2-[4-(2-furoyl)piperazin-1-yl]-6,7-dimethoxyquinazolin-4-amine (Sigma Aldrich) or clenbuterol—(RS)-1-(4-Amino-3,5-dichlorophenyl)-2-(tert-butylamino)ethanol (Sigma Aldrich)) for DOX, GUB or SQ quantification, respectively.
Mass spectrometry (MS) based detection and quantification of DOX, GUB, and SQ was performed with a L×Q linear ion trap mass spectrometer (Thermo Scientific) equipped with an electrospray ionization (ESI) interface and coupled to Agilent 1100 HPLC (Agilent Technologies). Separation of drugs and the internal standards was achieved on a reverse phase C18 Phenomenex HPLC column (250×4.60 mm; 5 μm) by a linear gradient of to 100% acetonitrile in water within 15 min at flow rate of 0.5 ml/min. All solvents contained 0.1% formic acid (v/v). The HPLC effluent was sprayed into the MS via an ESI probe operated in the positive ionization mode. Parameters of ionization and detection were tuned with synthetic standards for the drugs to achieve the highest possible sensitivity. Dox and parazosin (internal standard) were detected by selected reaction monitoring (SRM) using m/z 452.2→344.2 and 384.2→247.1 transitions whereas GUB, SQ and their corresponding IS, clenbuterol, was by fragmentation at m/z 231.1→214.0, 206.1→136.0, and 277.1→259.1, respectively. The elution times for DOX, GUB, and SQ were ˜12.8, 12.3, and 10.8 min, respectively. Both internal standards eluted at 12.0 min (FIG. 34). Calibration curves were calculated based on the linear relationship between ratios of SRM ion intensity peak area corresponding to the selected drug and the IS vs. molar ratios of the compounds in the range of 20-500 pmol (FIG. 34H).

[9] = test system: BALB/c mice; experiment: Light-induced retinal degeneration in BALB/c mice, retinal morphology (OCT, histology, IHC); format: in vivo, mouse; conditions: ip pretreatment 30 min before 10,000 lux, 7 days after light
[10] = test system: Abca4−/−Rdh8−/− mice; experiment: Bright light-induced retinal degeneration in Abca4−/−Rdh8−/− mice, SLO autofluorescence imaging; format: in vivo, mouse; conditions: pretreatment before light 10,000 lux 30 min; SLO 8-9 days after light exposure
Procedure: SLO (Heidelberg Engineering, Heidelberg, Germany) was carried out for whole fundus imaging of mouse retinas. Mice were anesthetized by intraperitoneal injection of anesthetic cocktail indicated above, which was followed by pupil dilation using 1% tropicamide prior to SLO imaging under autofluorescence mode.
(§1) SLO (Heidelberg Engineering) was carried out for in vivo whole fundus imaging of mouse retinas. […] Numbers of autofluorescent spots were counted and subjected to statistical analyses as described below.
SLO (Heidelberg Engineering) was carried out for whole fundus imaging of mouse retinas in vivo. Mice were anesthetized, and their pupils were dilated as described above. SLO images were then acquired in the autofluorescence mode.

[11] = test system: BALB/c mice; experiment: Light-induced retinal degeneration in BALB/c mice, SLO autofluorescence imaging; format: in vivo, mouse; conditions: DOX 10, GUB 2.0, SQ 0.5 mg/kg, 7 days after light
Procedure: as §1
These drugs were administered to 4-week-old BALB/c mice by intraperitoneal injection 30 min prior to white light exposure at 10,000 lux for 1 h. Retinal morphology was assessed 7 days after light exposure by OCT imaging and histological examination.

[12] = test system: visual pigment regeneration; experiment: Effect on chromophore regeneration (ERG responses and 11-cis-retinal levels after bleaching); format: in vivo; conditions: SQ treatment
Excerpt: It is also worth noting that rhodopsin could be a central player in light-induced retinal degeneration, and that reduced amounts of rhodopsin protect the retina from light-induced degeneration. Therefore we examined the potential impact of the AC inhibitor SQ on chromophore regeneration given that AC is the central player in our newly identified GPCR signaling implicated in light-induced retinopathy (FIG. 1). […] Therefore, the possibility of an acute effect of pharmacological compounds on phototransduction could be ruled out.

[13] = retinoid alone, at the doses examined

## NCCOB(c1ccccc1)c1ccccc1 [2-APB, 2-aminoethoxydiphenyl borate]
[1]
  ROS production in the ONL / photoreceptors (DHE signal): reduced ROS production
[2]
  retinal function by ERG (a-wave and b-wave amplitudes): protective effect
[3]
  retinal histology / immunohistochemistry (rhodopsin, PNA, DAPI; ONL): significantly preserved retinal morphology

## CC1=C(/C=C/C(C)=C/C=C/C(C)=C/c2cc(/C=C/C=C(C)/C=C/C3=C(C)CCCC3(C)C)cc[n+]2CCO)C(C)(C)CCC1 [A2E, di-retinoid-pyridinium-ethanolamine]
[4]; [13]
  cell death: neither atROL, atRA nor A2E induced cell death
[5]
  intracellular ROS production: did not induce overproduction of intracellular ROS

## COc1cc(C(C)=O)ccc1O [APO, Apocynin]
[6]
  retinal function by ERG (a-wave and b-wave amplitudes): protective effect
[1]
  ROS production in the ONL / photoreceptors (DHE signal): substantially decreased ROS production
[3]
  retinal histology / immunohistochemistry (rhodopsin, PNA, DAPI; ONL): nearly intact retinal morphology
[4]; APO together with atRAL
  ARPE19 cell survival: improved ARPE19 cell survival
[5]; APO applied to ARPE19 cells together with atRAL
  atRAL-induced intracellular ROS generation: inhibited atRAL-induced intracellular ROS generation
[7]
  retinal / photoreceptor morphology by OCT imaging: well-preserved retinal morphology

## N=C(N)N/N=C/c1c(Cl)cccc1Cl [Guanbenz]
[8]
  Eye ± SD: 13.1 ± 4.7 pmol/eye
  concentration at 30 min: 70 ± 18 nM
[8]; listed as GUB
  amount in eye compared with level in 0.1 mL of serum: comparable
[9]
  retinal morphology / ONL (OCT, histology): retinal morphology of drug-treated mice was maintained
[10]
  retinal autofluorescence spots by SLO imaging: markedly less autofluorescence spots
[1]
  ROS generation in photoreceptors (DHE signal): decreased
[3]
  retinal histology / immunohistochemistry (rhodopsin, PNA, DAPI; ONL): substantially preserved photoreceptor morphology
[11]
  autofluorescent spots by SLO: prevented
[7]; listed as GUB
  retinal / photoreceptor morphology by OCT imaging: significantly prevented; also recorded: dose-dependent fashion
[7]; protection from bright light-induced degeneration, dose-response, FIG. 25A/B
  half maximal effective (protective) dose: 0.3 mg/kg

## Nc1ncnc2c1ncn2C1CCCO1 (stereo not drawn) [SQ 22536]
[8]
  Eye ± SD: 5.6 ± 2.2 pmol/eye
  concentration at 30 min: 193 ± 55 nM
  amount in eye compared with level in 0.1 mL of serum: 5 times lower
[6]; listed as SQ
  retinal function by ERG (a-wave and b-wave amplitudes): substantial preservation of the scotopic ERG response; also recorded: substantial preservation of this response
[12]
  ERG responses and 11-cis-retinal levels after bleaching: no significant changes
[9]
  retinal morphology / ONL (OCT, histology): retinal morphology of drug-treated mice was maintained
[10]
  retinal autofluorescence spots by SLO imaging: dose-dependent effect
[1]
  ROS generation in photoreceptors (DHE signal): decreased
[3]
  retinal histology / immunohistochemistry (rhodopsin, PNA, DAPI; ONL): substantially preserved photoreceptor morphology
[11]
  autofluorescent spots by SLO: prevented
[7]
  retinal / photoreceptor morphology by OCT imaging: protected retinas from light-induced degeneration in a dose-dependent manner

## CC1=C(/C=C/C(C)=C/C=C/C(C)=C/C(=O)O)C(C)(C)CCC1 [atRA, all-trans-retinoic acid]
[4]; human, 24 h
  cell death: neither atROL, atRA nor A2E induced cell death
[5]
  intracellular ROS production: did not induce overproduction of intracellular ROS

## CC1=C(/C=C/C(C)=C/C=C/C(C)=C/CO)C(C)(C)CCC1 [atROL, all-trans-retinol]
[4]; [13]
  cell death: neither atROL, atRA nor A2E induced cell death
[5]
  intracellular ROS production: did not induce overproduction of intracellular ROS
